pIC50: −log10 of the molar value. Read-outs that look alike come from different tables or passages of the source.
Molecular target: SARS-CoV-2 Papain-Like Protease (PLpro) (Severe acute respiratory syndrome coronavirus 2 (2019-nCoV) (SARS-CoV-2), UniProt P0DTD1)
Experiment: biochemical
Details: read-out: PLpro IC50
[1] = SARS-CoV-2 PLpro enzymatic fluorescence assay
[2] = PLpro enzymatic fluorescence assay, class symbols

Compound `Cc1cc2cc(CCN)[nH]c2cc1C(=O)NC1(c2cccc3ccccc23)CC1` [Compound 202, 2-(2-Aminoethyl)-5-methyl-N-(1-(naphthalen-1-yl)cyclopropyl)-1H-indole-6-carboxamide] has a pIC50 [1] of 6.00 to 7.00.
`Cc1ccc(OC[C@H]2CCCN2C)cc1C(=O)NC1(c2cccc3ncccc23)CC1` [Compound 382, (R)-2-Methyl-5-((1-methylpyrrolidin-2-yl)methoxy)-N-(1-(quinolin-5-yl)cyclopropyl)benzamide] showed a pIC50 [1] of over 7.00.
In the case of `Cc1ccc(OC[C@@H]2CCN2C)cc1C(=O)NC1(c2cc(-c3cc[nH]n3)cc3ncccc23)CC1` [Compound 633, (S)-N-(1-(7-(1H-Pyrazol-3-yl)quinolin-5-yl)cyclopropyl)-2-methyl-5-((1-methylazetidin-2-yl)methoxy)benzamide], the pIC50 [2] was over 7.00.
In the case of `COc1cc(C2(NC(=O)c3cc(OC[C@H]4CC5(CC5)CN4C)ccc3C)CC2)c2cccnc2c1` [Compound 774, (R)—N-(1-(7-Methoxyquinolin-5-yl)cyclopropyl)-2-methyl-5-((5-methyl-5-azaspiro[2.4]heptan-6-yl)methoxy)benzamide], the pIC50 [2] was over 7.00.
`Cc1ccc(OC[C@@H](C)N)cc1C(=O)NC1(c2cc(Br)cc3ccccc23)CC1` [Compound 540, (R)-5-(2-Aminopropoxy)-N-(1-(3-bromonaphthalen-1-yl)cyclopropyl)-2-methylbenzamide] was tested, and the pIC50 [2] was over 7.00.
In the case of `Cc1ccc(OC[C@@H]2CCN2)cc1C(=O)NC1(c2cc(-c3cc[nH]n3)cc3ncccc23)CC1` [Compound 636, (S)-N-(1-(7-(1H-Pyrazol-3-yl)quinolin-5-yl)cyclopropyl)-5-(azetidin-2-ylmethoxy)-2-methylbenzamide], the pIC50 [2] was over 7.00.
`CNCCOc1ccc(C)c(C(=O)NC2(c3cc(-c4ccnn4C)cc4ncccc34)CC2)c1` [Compound 639, 2-Methyl-N-(1-(7-(1-methyl-1H-pyrazol-5-yl)quinolin-5-yl)cyclopropyl)-5-(2-(methylamino)ethoxy)benzamide] was tested, and the pIC50 [2] was over 7.00.
Compound `Cc1ccc(OC[C@@H]2CCN2C)cc1C(=O)NC1(c2cc(-c3ccn(C)n3)cc3ncccc23)CC1` [Compound 582, (S)-2-Methyl-N-(1-(7-(1-methyl-1H-pyrazol-3-yl)quinolin-5-yl)cyclopropyl)-5-((1-methylazetidin-2-yl)methoxy)benzamide] has a pIC50 [2] of over 7.00.
`Cc1cc2cnn(C3CNC3)c2cc1C(=O)NC1(c2cccc3ccccc23)CC1` [Compound 304, 1-(Azetidin-3-yl)-5-methyl-N-(1-(naphthalen-1-yl)cyclopropyl)-1H-indazole-6-carboxamide] showed a pIC50 [1] of over 7.00.
In the case of `COC(=O)CCc1ccc(C)c(C(=O)NC2(c3cccc4ccccc34)CC2)c1` [Compound 431, Methyl 3-(4-methyl-3-((1-(naphthalen-1-yl)cyclopropyl)carbamoyl)phenyl) propanoate], the pIC50 [1] was 6.00 to 7.00.
`Cc1ccc(OC[C@@H]2CCN2)cc1C(=O)NC1(c2cc(-c3cnc(N4CCCCC4)nc3)cc3ncccc23)CC1` [Compound 688, (S)-5-(Azetidin-2-ylmethoxy)-2-methyl-N-(1-(7-(2-(piperidin-1-yl)pyrimidin-5-yl)quinolin-5-yl)cyclopropyl)benzamide] showed a pIC50 [2] of over 7.00.
`Cc1ccc(OCC2CCCN2)cc1C(=O)NC1(c2cccc3ccccc23)CC1` (stereo not shown) [Compound 263, 2-Methyl-N-(1-(naphthalen-1-yl)cyclopropyl)-5-(pyrrolidin-2-ylmethoxy)benzamide] was tested, and the pIC50 [1] was over 7.00.
For `Cc1ccc([N+](=O)[O-])cc1CNC(c1cccc2ccccc12)C1CCOC1` (stereo not shown) [Compound 123], the pIC50 [2] was under 5.30.
Compound `Cc1ccc(OC[C@@H]2CCN2C)cc1C(=O)NC1(c2cc(N)cc3ncccc23)CC1` [Compound 729, (S)-N-(1-(7-Aminoquinolin-5-yl)cyclopropyl)-2-methyl-5-((1-methylazetidin-2-yl)methoxy)benzamide] has a pIC50 [1] of over 7.00.
For `[2H]C([2H])([2H])N1CC[C@H]1COc1ccc(C)c(C(=O)NC2(c3cc(C=C)cc4ncccc34)CC2)c1` [Compound 788, (S)-2-Methyl-5-((1-(methyl-d3)azetidin-2-yl)methoxy)-N-(1-(7-vinylquinolin-5-yl)cyclopropyl)benzamide], the pIC50 [2] was over 7.00.
`COc1cc(C2(NC(=O)c3cc(OC[C@@H]4CCN4C)c(N)cc3C)CC2)c2cccnc2c1` [Compound 597, (S)-4-Amino-N-(1-(7-methoxyquinolin-5-yl)cyclopropyl)-2-methyl-5-((1-methylazetidin-2-yl)methoxy)benzamide] gave a pIC50 [1] of over 7.00.
`COc1cc(C2(NC(=O)c3cc(OC[C@H]4C[C@H](F)CN4C)ccc3C)CC2)c2cccnc2c1` [Compound 557, 5-(((2R,4S)-4-Fluoro-1-methylpyrrolidin-2-yl)methoxy)-N-(1-(7-methoxyquinolin-5-yl)cyclopropyl)-2-methylbenzamide] gave a pIC50 [2] of over 7.00.
`Cc1ccc(OCCN(C)C)cc1C(=O)NC1(c2cccc3ncccc23)CC1` [Compound 301, 5-(2-(Dimethylamino)ethoxy)-2-methyl-N-(1-(quinolin-5-yl)cyclopropyl)benzamide] showed a pIC50 [1] of over 7.00.
For `Cc1ccc(OC[C@@H]2CCN2)cc1C(=O)NC1(c2cc(-c3cc4ccccc4s3)cc3ncccc23)CC1` [Compound 695, (S)-5-(Azetidin-2-ylmethoxy)-N-(1-(7-(benzo[b]thiophen-2-yl)quinolin-5-yl)cyclopropyl)-2-methylbenzamide], the pIC50 [2] was over 7.00.
For `Cc1ccc(OC[C@@H]2CCN2C)cc1C(=O)NC1(c2cc(-c3ccc(=O)[nH]c3)cc3ncccc23)CC1` [Compound 672, (S)-2-Methyl-5-((1-methylazetidin-2-yl)methoxy)-N-(1-(7-(6-oxo-1,6-dihydropyridin-3-yl)quinolin-5-yl)cyclopropyl)benzamide], the pIC50 [2] was over 7.00.
Work on `Cc1ccc(OC[C@@H]2CCN2)cc1C(=O)NC1(c2cccc3ncccc23)CC1` [Compound 381, (S)-5-(Azetidin-2-ylmethoxy)-2-methyl-N-(1-(quinolin-5-yl)cyclopropyl)benzamide] yielded a pIC50 [1] of over 7.00.
`Cc1ccc(OC2CNC2)cc1C(=O)NC1(c2cccc3ccccc23)CC1` [Compound 171, 5-(Azetidin-3-yloxy)-2-methyl-N-(1-(naphthalen-1-yl)cyclopropyl)benzamide] was tested, and the pIC50 [1] was 6.00 to 7.00.
`COc1cc(C2(NC(=O)c3cc(OC[C@@H]4C[C@@H](F)CN4)ccc3C)CC2)c2ccccc2c1` [Compound 490, 5-(((2S,4R)-4-Fluoropyrrolidin-2-yl)methoxy)-N-(1-(3-methoxynaphthalen-1-yl)cyclopropyl)-2-methylbenzamide] was tested, and the pIC50 [1] was over 7.00.
Compound `COc1cc(C2(NC(=O)c3cc(OC[C@@H]4CCCN4)ccc3C)CC2)c2cccnc2c1` [Compound 462, (S)-N-(1-(7-Methoxyquinolin-5-yl)cyclopropyl)-2-methyl-5-(pyrrolidin-2-ylmethoxy)benzamide] has a pIC50 [1] of over 7.00.
`Cc1cc2nc[nH]c2cc1C(=O)N[C@H](C)c1cccc2ccccc12` [Compound 102, (R)-5-Methyl-N-(1-(naphthalen-1-yl)ethyl)-1H-benzo[d]imidazole-6-carboxamide] gave a pIC50 [1] of 5.30 to 6.00.
In the case of `Cc1ccc(OC[C@@H]2CCCN2)cc1C(=O)NC1(c2cccc3ncccc23)CC1` [Compound 380, (S)-2-Methyl-5-(pyrrolidin-2-ylmethoxy)-N-(1-(quinolin-5-yl)cyclopropyl)benzamide], the pIC50 [1] was over 7.00.
In the case of `Cc1ccc(OCC2CCN2C)cc1C(=O)NC1(c2cc(N)cc3ccccc23)CC1` (stereo not shown) [Compound 496, N-(1-(3-Aminonaphthalen-1-yl)cyclopropyl)-2-methyl-5-((1-methylazetidin-2-yl)methoxy)benzamide], the pIC50 [1] was over 7.00.
With `Cc1ccc(OCC2CCN2C)cc1C(=O)NC1(c2cccc3ccc(N)cc23)CC1` (stereo not shown) [Compound 483, N-(1-(7-Aminonaphthalen-1-yl)cyclopropyl)-2-methyl-5-((1-methylazetidin-2-yl)methoxy)benzamide] the pIC50 [1] was over 7.00.
`Cc1ccc(OCCN(C)C)cc1C(=O)NC1(c2cccc(C)c2Br)CC1` [Compound 317, N-(1-(2-Bromo-3-methylphenyl)cyclopropyl)-5-(2-(dimethylamino)ethoxy)-2-methylbenzamide] gave a pIC50 [1] of 6.00 to 7.00.
With `Cc1ccc(OC[C@H](C)N)cc1C(=O)NC1(c2cc(Br)cc3ccccc23)CC1` [Compound 541, (S)-5-(2-Aminopropoxy)-N-(1-(3-bromonaphthalen-1-yl)cyclopropyl)-2-methylbenzamide] the pIC50 [1] was over 7.00.
`CCCc1cc(C2(NC(=O)c3cc(OCC4CCN4C)ccc3C)CC2)c2ccccc2c1` (stereo not shown) [Compound 504, 2-Methyl-5-((1-methylazetidin-2-yl)methoxy)-N-(1-(3-propylnaphthalen-1-yl)cyclopropyl)benzamide] was tested, and the pIC50 [2] was over 7.00.
`Cc1ccc(OCC2CCN2C)cc1C(=O)NC1(c2ccnc3ccccc23)CC1` (stereo not shown) [Compound 473, 2-Methyl-5-((1-methylazetidin-2-yl)methoxy)-N-(1-(quinolin-4-yl)cyclopropyl)benzamide] gave a pIC50 [2] of over 7.00.
`COc1ccc(C)c(C(=O)N[C@H](C)c2cccc3ccccc23)c1` [Compound 136, (R)-5-Methoxy-2-methyl-N-(1-(naphthalen-1-yl)ethyl)benzamide] was tested, and the pIC50 (PLpro 6.25 nM, substrate 25 μM, 60 min at 25° C., for more potent compounds PLpro 1 nM, 120 min) was 5.30 to 6.00.
`COC1CN(c2cc(C3(NC(=O)c4cc(OC[C@@H]5CCN5C)ccc4C)CC3)c3ccc(C)nc3c2)C1` [Compound 811, (S)—N-(1-(7-(3-Methoxyazetidin-1-yl)-2-methylquinolin-5-yl)cyclopropyl)-2-methyl-5-((1-methylazetidin-2-yl)methoxy)benzamide] showed a pIC50 [2] of over 7.00.
`Cc1ccc(OCC(N)Cc2ccccc2)cc1C(=O)NC1(c2cccc3ccccc23)CC1` (stereo not shown) [Compound 322, 5-(2-Amino-3-phenylpropoxy)-2-methyl-N-(1-(naphthalen-1-yl)cyclopropyl)benzamide] showed a pIC50 [1] of over 7.00.
`COc1cc(C2(NC(=O)c3cc(OC[C@@H]4CCN4C)ccc3F)CC2)c2ccc(C)nc2c1` [Compound 791, (S)-2-Fluoro-N-(1-(7-methoxy-2-methylquinolin-5-yl)cyclopropyl)-5-((1-methylazetidin-2-yl)methoxy)benzamide] gave a pIC50 [2] of 6.00 to 7.00.
Work on `Cc1ccc(OCCNC(=O)OC(C)(C)C)cc1C(=O)N[C@H](C)c1cccc2ccccc12` [Compound 158, (R)-tert-Butyl(2-(4-methyl-3-((1-(naphthalen-1-yl)ethyl)carbamoyl)phenoxy)ethyl)carbamate] yielded a pIC50 [1] of 5.30 to 6.00.

From US20250025443A1, “COMPOUNDS AND METHODS FOR TREATING CORONA VIRUSES” (CLEAR CREEK BIO, INC., priority 2021, published 2025)
